Experimental data as given in Sander's compilation of Henry's law constants (doi:10.1002/etc.5620111109).

How the values were obtained:
[1] = Henry solubility constant Hcp at 298.15 K (mol/(m3 Pa)); conditions: reference: ten Hulscher et al. (1992)
[2] = Henry solubility constant Hcp at 293 K (mol/(m3 Pa)); conditions: reference: ten Hulscher et al. (1992)

c1ccc2c(c1)-c1cccc3cccc-2c13 [benzo[jk]fluorene]
Henry solubility constant Hcp [1]: 1.1

Clc1cc(Cl)c(Cl)c(Cl)c1 [1,2,3,5-tetrachlorobenzene]
Henry solubility constant Hcp at 293 K [2]: 0.01

Clc1cc(Cl)cc(Cl)c1 [1,3,5-trichlorobenzene]
Henry solubility constant Hcp at 293 K [2]: 0.0052

c1cc2ccc3ccc4ccc5cccc6c(c1)c2c3c4c56 [benzo[ghi]perylene]
Henry solubility constant Hcp [1]: 30

c1ccc2c(c1)cc1ccc3cccc4ccc2c1c34 [benzo[a]pyrene]
Henry solubility constant Hcp [1]: 22

c1ccc2cc3c(cc2c1)-c1cccc2cccc-3c12 [benzo[k]fluoranthene]
Henry solubility constant Hcp [1]: 17

c1ccc2c(c1)-c1cccc3c1c-2cc1ccccc13 [benzo[b]fluoranthene]
Henry solubility constant Hcp [1]: 15

Clc1cccc(Cl)c1Cl [1,2,3-trichlorobenzene]
Henry solubility constant Hcp at 293 K [2]: 0.014

Clc1ccc(Cl)c(-c2ccccc2)c1 [2,5-dichlorobiphenyl]
Henry solubility constant Hcp [1]: 0.023

Clc1ccc(Cl)c(-c2cc(Cl)ccc2Cl)c1 [2,2',5,5'-tetrachlorobiphenyl]
Henry solubility constant Hcp [1]: 0.042

c1ccc2c(c1)-c1ccc3ccc4cccc5cc-2c1c3c45 [indeno[1,2,3-cd]pyrene]
Henry solubility constant Hcp [1]: 28
